Source: paper PMC6318274, “Lattice engineering enables definition of molecular features allowing for potent small-molecule inhibition of HIV-1 entry” (Nature Communications, 2019)
pIC50: −log10 of the molar value. Like-named read-outs stand apart in the source and are kept apart here.

System: HIV-1 Env-pseudoviruses (208-strain panel)
Test: microbe, parasite or virus in culture
Format: cell-based
Conditions: Human immunodeficiency virus 1, TZM-bl, read-out: IC50
Experimental: Neutralization was measured using single-round-of-infection HIV-1 Env-pseudoviruses and TZM-bl target cells (ARP Cat No. #8129)[44],[45]. Compounds were prepared at 400 μM with 4% DMSO (dimethyl sulfoxide) in PBS (phosphate-buffered saline) and diluted 20 times as the starting concentration for serial dilution in the neutralization assays. […] After incubation at 37 °C for 2 days, infection of target cells was measured by luciferase activity. Neutralization curves were fit by nonlinear regression using a five-parameter hill slope equation[45].

With `COc1cnc(-c2csc(C(=O)NCCO)n2)c2[nH]cc(C(=O)C(=O)N3CCC(=C(C#N)c4ccccc4)CC3)c12` [BMS-818251] as the compound, how does the pIC50 (CNE5, clade AE) read?
Its pIC50 is 6.33.

What about the pIC50 (CNE7, clade BC) of the same compound?
The pIC50 was 9.40.

What about the pIC50 (CNE8, clade AE) of the same compound?
The pIC50 was 5.57.

And the pIC50 (CNE10 (Clade B))?
The pIC50 was 10.00.

And the pIC50 (CNE12, clade B)?
The pIC50 was 8.70.

And the pIC50 (CNE14, clade B)?
The pIC50 was 5.95.

What about the pIC50 (CNE15, clade BC) of the same compound?
The pIC50 was 10.00.

And the pIC50 (CNE19, clade BC)?
Its pIC50 is 10.00.

What about the pIC50 (CNE20 (Clade BC)) of the same compound?
Its pIC50 is 8.22.

What about the pIC50 (CNE21, clade BC) of the same compound?
Its pIC50 is 9.52.

And the pIC50 (CNE30, clade C)?
The pIC50 was 9.70.

And the pIC50 (CNE31, clade C)?
Its pIC50 is 9.00.

What about the pIC50 (CNE40, clade BC) of the same compound?
The pIC50 was 9.00.

And the pIC50 (CNE55, clade AE)?
The pIC50 was 6.55.

What about the pIC50 (CNE56 (Clade AE)) of the same compound?
The pIC50 was 6.10.

And the pIC50 (CNE57, clade B)?
The pIC50 was 9.52.

And the pIC50 (CNE58, clade C)?
The pIC50 was 9.70.

And the pIC50 (CNE59, clade AE)?
The pIC50 was 6.30.

What about the pIC50 (Ce1176.A3, clade C) of the same compound?
Its pIC50 is 9.05.

What about the pIC50 (DJ263.8 (Clade AG)) of the same compound?
Its pIC50 is 9.70.

And the pIC50 (DU123.06, clade C)?
The pIC50 was 9.52.

What about the pIC50 (DU151.02, clade C) of the same compound?
Its pIC50 is 9.70.

And the pIC50 (DU156.12 (Clade C))?
Its pIC50 is 9.70.

And the pIC50 (DU172.17, clade C)?
Its pIC50 is 10.00.

What about the pIC50 (DU422.01, clade C) of the same compound?
The pIC50 was 9.15.

What about the pIC50 (HO86.8, clade B) of the same compound?
Its pIC50 is 8.40.

What about the pIC50 (HT593.1, clade B) of the same compound?
Its pIC50 is 10.00.

What about the pIC50 (JRFL.JB, clade B) of the same compound?
Its pIC50 is 10.00.

And the pIC50 (KER2008.12 (Clade A))?
Its pIC50 is 7.82.

And the pIC50 (KER2018.11, clade A)?
Its pIC50 is 9.52.

What about the pIC50 (KNH1209.18, clade A) of the same compound?
Its pIC50 is 9.40.

And the pIC50 (M02138, clade AE)?
The pIC50 was 7.55.

And the pIC50 (MB201.A1 (Clade A))?
Its pIC50 is 8.05.

And the pIC50 (MB539.2B7, clade A)?
Its pIC50 is 8.70.

What about the pIC50 (MI369.A5, clade A) of the same compound?
The pIC50 was 9.52.

And the pIC50 (MN.3, clade B)?
Its pIC50 is 9.22.

What about the pIC50 (MS208.A1, clade A) of the same compound?
Its pIC50 is 9.52.

What about the pIC50 (MW965.26, clade C) of the same compound?
Its pIC50 is 8.22.

What about the pIC50 (NKU3006.ec1 (Clade D)) of the same compound?
The pIC50 was 9.70.

And the pIC50 (P0402.c2.11 (Clade G))?
Its pIC50 is 9.70.

And the pIC50 (P1981.C5.3, clade G)?
The pIC50 was 9.30.

What about the pIC50 (PVO.04 (Clade B)) of the same compound?
Its pIC50 is 9.40.

What about the pIC50 (Q23.17, clade A) of the same compound?
Its pIC50 is 9.30.

What about the pIC50 (Q168.a2, clade AD) of the same compound?
The pIC50 was 8.52.

And the pIC50 (Q259.17, clade A)?
The pIC50 was 8.15.

And the pIC50 (Q461.e2, clade AD)?
Its pIC50 is 9.52.

What about the pIC50 (Q769.d22, clade A) of the same compound?
The pIC50 was 9.00.

And the pIC50 (Q769.h5, clade A)?
The pIC50 was 8.70.

What about the pIC50 (Q842.d12, clade A) of the same compound?
Its pIC50 is 9.40.

And the pIC50 (QH209.14M.A2, clade A)?
Its pIC50 is 7.22.

What about the pIC50 (QH0515.01, clade B) of the same compound?
The pIC50 was 7.51.

What about the pIC50 (QH0692.42, clade B) of the same compound?
Its pIC50 is 9.15.

What about the pIC50 (R1166.c1, clade AE) of the same compound?
The pIC50 was under 4.70.

What about the pIC50 (R2184.c4, clade AE) of the same compound?
Its pIC50 is 5.69.

And the pIC50 (R3265.c6 (Clade AE))?
Its pIC50 is 6.91.

What about the pIC50 (REJO.67 (Clade B)) of the same compound?
The pIC50 was 6.23.

And the pIC50 (RHPA.7, clade B)?
Its pIC50 is 9.30.

What about the pIC50 (RW020.2, clade A) of the same compound?
The pIC50 was 9.15.

What about the pIC50 (SF162.LS, clade B) of the same compound?
The pIC50 was 10.00.

And the pIC50 (SO18.18, clade C)?
The pIC50 was 9.70.

And the pIC50 (SS1196.01, clade B)?
The pIC50 was 6.24.

What about the pIC50 (T33-7, clade AG) of the same compound?
The pIC50 was 6.60.

And the pIC50 (T250-4, clade AG)?
Its pIC50 is 9.40.

And the pIC50 (T251-18, clade AG)?
The pIC50 was 9.22.

What about the pIC50 (T253-11 (Clade AG)) of the same compound?
The pIC50 was 10.00.

What about the pIC50 (T255-34, clade AG) of the same compound?
The pIC50 was 8.70.

What about the pIC50 (T257-31, clade AG) of the same compound?
Its pIC50 is 9.00.

What about the pIC50 (T266-60, clade AG) of the same compound?
The pIC50 was 7.38.

What about the pIC50 (T278-50, clade AG) of the same compound?
The pIC50 was 10.00.

What about the pIC50 (T280-5 (Clade AG)) of the same compound?
The pIC50 was 9.40.

And the pIC50 (TH023.6, clade AE)?
Its pIC50 is under 4.70.

What about the pIC50 (TH966.8, clade AE) of the same compound?
Its pIC50 is 6.03.

And the pIC50 (TH976.17, clade AE)?
The pIC50 was 5.89.

What about the pIC50 (THRO.18, clade B) of the same compound?
The pIC50 was 9.70.

And the pIC50 (TRJO.58, clade B)?
Its pIC50 is 10.00.

And the pIC50 (TRO.11, clade B)?
Its pIC50 is 6.90.

And the pIC50 (TV1.29, clade C)?
The pIC50 was 9.00.

And the pIC50 (TZA125.17, clade C)?
The pIC50 was 9.00.

What about the pIC50 (TZBD.02, clade C) of the same compound?
The pIC50 was 9.52.

What about the pIC50 (UG021.16, clade D) of the same compound?
Its pIC50 is 9.70.

What about the pIC50 (UG024.2, clade D) of the same compound?
Its pIC50 is under 4.70.

And the pIC50 (UG037.8, clade A)?
Its pIC50 is 8.00.

What about the pIC50 (WITO.33, clade B) of the same compound?
Its pIC50 is 9.10.

What about the pIC50 (X1254.c3, clade G) of the same compound?
Its pIC50 is 9.70.

And the pIC50 (X1632.S2.B10, clade G)?
Its pIC50 is 9.52.

And the pIC50 (X2088.c9, clade G)?
Its pIC50 is 9.52.

What about the pIC50 (X2131.C1.B5, clade G) of the same compound?
The pIC50 was 9.00.

What about the pIC50 (X2278.C2.B6, clade B) of the same compound?
The pIC50 was 6.36.

And the pIC50 (YU2.DG, clade B)?
Its pIC50 is 9.30.

And the pIC50 (ZA012.29, clade C)?
The pIC50 was 9.30.

What about the pIC50 (ZM53.12, clade C) of the same compound?
The pIC50 was 9.40.

And the pIC50 (ZM55.28a, clade C)?
Its pIC50 is 9.52.

What about the pIC50 (ZM106.9 (Clade C)) of the same compound?
Its pIC50 is 8.70.

What about the pIC50 (ZM109.4, clade C) of the same compound?
The pIC50 was 10.00.

What about the pIC50 (ZM135.10a, clade C) of the same compound?
Its pIC50 is 6.82.

And the pIC50 (ZM176.66, clade C)?
Its pIC50 is 9.00.

What about the pIC50 (ZM197.7, clade C) of the same compound?
Its pIC50 is 9.70.

What about the pIC50 (ZM214.15, clade C) of the same compound?
The pIC50 was 9.70.

What about the pIC50 (ZM215.8, clade C) of the same compound?
Its pIC50 is 10.00.

What about the pIC50 (ZM233.6, clade C) of the same compound?
The pIC50 was 10.00.

What about the pIC50 (ZM249.1, clade C) of the same compound?
Its pIC50 is 9.40.

What about the pIC50 ([…], clade C) of the same compound?
Its pIC50 is 10.00.

And the pIC50 ([…], clade G)?
Its pIC50 is 9.22.
